In patent US8927571B2, “Pyrido[4,3-B]indoles and methods of use” (Medivation Technologies, Inc., priority 2009, dated 2015):

Target: T1, human recombinant serotonin (5-Hydroxytryptamine) 5-HT2A receptor (Homo sapiens, UniProt P28223)
T1 construct: expressed in transfected cells; host or cells: Chinese hamster ovary (CHO-K1) cells
Assay: Serotonin 5-HT2A radioligand binding assay ([3H]Ketanserin)
Details: 0.5 nM [3H]Ketanserin, read-out: Percent Inhibition of ligand binding, Serotonin (1 μM) 5-HT2A
Procedure: Compounds of the invention were incubated with 0.5 nM [^3H]Ketanserin for 60 min at 25° C. Non-specific binding was estimated in the presence of 1 μM Mianserin. Receptor proteins were filtered and washed, the filters were then counted to determine [^3H]Ketanserin specifically bound. Compounds were screened at 1 μM or lower, using 1% DMSO as vehicle. Biochemical assay results are presented as the percent inhibition of specific binding in Table 4.

T1 sequence (P28223 whole entry): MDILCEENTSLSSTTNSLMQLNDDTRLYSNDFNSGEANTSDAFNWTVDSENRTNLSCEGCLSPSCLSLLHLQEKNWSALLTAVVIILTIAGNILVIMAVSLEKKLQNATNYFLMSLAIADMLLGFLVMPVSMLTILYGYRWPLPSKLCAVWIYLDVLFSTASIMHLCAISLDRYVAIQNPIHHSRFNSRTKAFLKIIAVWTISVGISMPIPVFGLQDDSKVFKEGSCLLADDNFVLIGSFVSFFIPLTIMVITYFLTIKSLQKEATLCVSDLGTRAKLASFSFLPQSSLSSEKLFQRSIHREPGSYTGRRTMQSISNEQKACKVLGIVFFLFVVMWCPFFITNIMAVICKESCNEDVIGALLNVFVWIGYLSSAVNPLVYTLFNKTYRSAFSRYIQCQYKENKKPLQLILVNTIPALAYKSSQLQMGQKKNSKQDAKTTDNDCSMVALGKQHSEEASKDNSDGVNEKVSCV

## Cc1ccc2c(c1)c1c(n2CC(O)(c2ccccc2)c2ccc(F)cc2)CCN(C)C1 (stereo not shown) [Compound 1, 2-(2,8-dimethyl-3,4-dihydro-1H-pyrido[4,3-b]indol-5(2H)-yl)-1-(4-fluorophenyl)-1-phenylethanol]
  inhibition at 1 µM: 97%
